Test results taken from patent publication US20100210597A1, “C21-Deoxy Ansamycin Derivatives as Antitumor Agents” (priority 2007, published 2010).

Key:
[1] = test system: CXF HT29; experiment: Monolayer proliferation assay (modified propidium iodide), CXF HT29; assay type: cell-based, human; conditions: average of 2 experiments
Protocol: (§1) In vitro evaluation of compounds for anticancer activity in a panel of human tumour cell lines in a monolayer proliferation assay was carried out at the Oncotest Testing Facility, Institute for Experimental Oncology, Oncotest GmbH, Freiburg.
(§2) The Oncotest cell lines are established from human tumor xenografts as described by Roth et al., (1999). The origin of the donor xenografts is described by Fiebig et al., (1999). Other cell lines are either obtained from the NCl (DU145, MCF-7) or purchased from DSMZ, Braunschweig, Germany.
(§3) All cell lines, unless otherwise specified, are grown at 37° C. in a humidified atmosphere (95% air, 5% CO2) in a ‘ready-mix’ medium containing RPMI 1640 medium, 10% fetal calf serum, and 0.1 mg/mL gentamicin (PAA, Cölbe, Germany).
(§4) A modified propidium iodide assay was used to assess the effects of the test compound(s) on the growth of six human tumour cell lines (Dengler et al., (1995)).
(§5) Briefly, cells are harvested from exponential phase cultures by trypsinization, counted and plated in 96 well flat-bottomed microtitre plates at a cell density dependent on the cell line (5-10.000 viable cells/well). After 24 h recovery to allow the cells to resume exponential growth, 0.010 mL of culture medium (6 control wells per plate) or culture medium containing macbecin were added to the wells. Each concentration is plated in triplicate. Compounds were applied in two concentrations (0.001 mM and 0.01 mM). Following 4 days of continuous exposure, cell culture medium with or without test compound was replaced by 0.2 mL of an aqueous propidium iodide (P1) solution (7 mg/L). To measure the proportion of living cells, cells were permeabilized by freezing the plates. After thawing the plates, fluorescence was measured using the Cytofluor 4000 microplate reader (excitation 530 nm, emission 620 nm), giving a direct relationship to the total number of viable cells.
(§6) Growth inhibition is expressed as treated/control×100 (% T/C).
(§7) In vitro evaluation of the test compound, 20, for anticancer activity in a panel of human tumour cell lines in a monolayer proliferation assay was carried out as described in the general methods using a modified propidium iodide assay.

[2] = test system: LXF 1121L; experiment: Monolayer proliferation assay (modified propidium iodide), LXF 1121L; assay type: cell-based, human; conditions: average of 2 experiments
Protocol: as §1, §2, §3, §4, §5, §6, §7

[3] = test system: MEXF 394NL; experiment: Monolayer proliferation assay (modified propidium iodide), MEXF 394NL; assay type: cell-based, human; conditions: average of 2 experiments
Protocol: as §1, §2, §3, §4, §5, §6, §7

[4] = In vivo pharmacokinetic assay in mice; parameters: species or system mouse; conditions: female CD-1 mice
Protocol: The test compound was prepared directly in endotoxin free water. A single dose of 10 mg/kg p.o. or 3 mg/kg i.v. was administered to groups of female CD1 mice (3 mice for each compound per time point). Dose volumes were 10 mL/kg for both oral and intravenous administration. At 4 minutes and 0.25, 0.5, 1, 2, 4, 8, 24 hours groups were sacrificed and plasma was collected from each mouse for further analysis. For oral dosing, a single dose of Test Article was administered via oral gavage to the mice. For intravenous dosing, a single dose of Test article was administered intravenously to mice via the tail veins.
The concentration of the relevant compounds in the plasma samples was determined by HPLC with MS detection.
• Mass spectrometer: API 3200 Q Trap triple quadruple mass spectrometer • Liquid chromatography: Agilent 1200/PAL HTC Autosampler • Ionization Mode: Electrospray (may be changed depending on the TA) • Monitoring: Multiple Reaction Monitoring • LC chromatography BetaBastic-8, 50×2.1 mm, 5 μm (may separation: be changed depending on the TA)
Based on the peak area ratios of test article to an internal standard, 17-Methoxyethylamino Geldanamycin (Schnur et al., 1995), concentrations of an unknown sample were obtained by a calibration curve.
Test plasma sample (0.05 ml), analyte free mouse whole serum (0.05 ml), internal standard solution (0.1 ml of 10 mg/mL 17-Methoxyethylamino geldanamycin (Schnur et al., 1995) dissolved in methanol) and acetonitrile (0.5 ml) were pipetted into a 2-mL polypropylene tube and the contents of the tubes were mixed for a minimum of 5 minutes (Vibrax mixer). The tubes were then centrifuged in a microfuge for a minimum of 2 minutes at 12,000 rpm. 0.1 ml of the solvent layer was transferred into a 2-mL polypropylene tube containing 1 mL acid diluent (0.1% formic acid). The tubes were then mixed for a minimum of 5 minutes (Vibrax mixer) and then centrifuged at approximately 3500 rpm for 5 minutes. The extracts were transferred to auto-sampler vials and placed in the auto sampler tray which was set at ambient temperature. The auto-sampler was programmed to inject a 0.005 ml aliquot of each extract onto the analytical column.
In vivo confirmation of the cleavage of 20 to the parent molecule, 17, was carried out as described in the general methods.
Female CD-1 mice were given single doses of 20, either intravenously at 3 mg/kg, or orally at 10 mg/kg. Plasma samples were then collected at 8 time points (0.067, 0.25, 0.5, 1, 2, 4, 8 and 24 h postdose) over a 24-h period. The amounts of 20 and 17 in the samples were then analysed. […] After iv administration, 20 was only detected up to 0.25 hours after dosing, whilst 17 was detected up to 4 hours after dosing.

[5] = test system: panel of human tumour cell lines; experiment: Monolayer proliferation assay, mean across cell line panel; assay type: cell-based; conditions: geometric mean of all replicates across six cell lines
Protocol: as §1, §2, §3, §4
Briefly, cells are harvested from exponential phase cultures by trypsinization, counted and plated in 96 well flat-bottomed microtitre plates at a cell density dependent on the cell line (5-10.000 viable cells/well). […] After thawing the plates, fluorescence was measured using the Cytofluor 4000 microplate reader (excitation 530 nm, emission 620 nm), giving a direct relationship to the total number of viable cells.
Growth inhibition is expressed as treated/control×100 (% T/C). […]

[6] = test system: CNXF 498NL; experiment: Monolayer proliferation assay (modified propidium iodide), CNXF 498NL; assay type: cell-based, human; conditions: average of 2 experiments
Protocol: as §1, §2, §3, §4
as §5, with “Compounds were applied in two concentrations (0.001 mM and 0.01 mM).” left out
as §6, §7

Structure (SMILES): CO[C@H]1C[C@H](C)Cc2cc(cc(OP(=O)(O)O)c2)NC(=O)/C(C)=C/CC[C@H](C)[C@@H](OC(N)=O)/C(C)=C/[C@H](C)[C@H]1O [Compound 20, 4,5-dihydro-11-O-demethyl-15-demethoxy-18,21-didehydro-21-deoxomacbecin-18-phosphate]
- Test/Control (%) at drug concentration (μg/mL) ([1]; CXF HT29, 0.01 μg/mL): 112%
- Test/Control (%) at drug concentration (μg/mL) ([1]; CXF HT29, 0.1 μg/mL): 43%
- Test/Control (%) at drug concentration (μg/mL) ([1]; CXF HT29, 1 μg/mL): 7%
- Test/Control (%) at drug concentration (μg/mL) ([1]; CXF HT29, 10 μg/mL): 7%
- Test/Control (%) at drug concentration (μg/mL) ([1]; CXF HT29, 100 μg/mL): 5%
- Test/Control (%) at drug concentration (μg/mL) ([2]; 0.01 μg/mL): 103%
- Test/Control (%) at drug concentration (μg/mL) ([2]; 0.1 μg/mL): 58%
- Test/Control (%) at drug concentration (μg/mL) ([2]; 1 μg/mL): 15%
- Test/Control (%) at drug concentration (μg/mL) ([2]; 10 μg/mL): 14%
- Test/Control (%) at drug concentration (μg/mL) ([2]; 100 μg/mL): 5%
- Test/Control (%) at drug concentration (μg/mL) ([3]; 0.01 μg/mL): 102%
- Test/Control (%) at drug concentration (μg/mL) ([3]; 0.1 μg/mL): 50%
- Test/Control (%) at drug concentration (μg/mL) ([3]; 1 μg/mL): 17%
- Test/Control (%) at drug concentration (μg/mL) ([3]; 10 μg/mL): 16%
- Test/Control (%) at drug concentration (μg/mL) ([3]; 100 μg/mL): 3%
- detected in plasma up to (time after dosing) ([4]; single intravenous dose of 20 at 3 mg/kg): up to 0.25 hours
- detected in plasma up to (time after dosing) ([4]; single oral dose of 20 at 10 mg/kg): not seen in the plasma
- average IC70 value across the cell-line panel [5]: 0.344 µg/mL
- Test/Control (%) at drug concentration (μg/mL) ([6]; 0.01 μg/mL): 99%
- Test/Control (%) at drug concentration (μg/mL) ([6]; 0.1 μg/mL): 77%
- Test/Control (%) at drug concentration (μg/mL) ([6]; 1 μg/mL): 15%
- Test/Control (%) at drug concentration (μg/mL) ([6]; 10 μg/mL): 16%
- Test/Control (%) at drug concentration (μg/mL) ([6]; 100 μg/mL): 12%
